Measurements as given in PubChem BioAssay (NCI).
Several values for one entry are separate records, joined by “and”; a condition that tells them apart may be missing. Equal entries are not always repeated.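 The compound was tested at five concentrations on cells cultured in 96-well plates, with a 48-hour exposure period. The concentration for 50% growth inhibition is given as GI50. The concentration for full growth arrest is given as TGI.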

Key:
Experiment in all cases: NCI tumour cell line growth inhibition, 48 h
[1] = system: SK-MEL-2 melanoma
[2] = system: DMS 273 small cell lung
[3] = system: HOP-18 NSCLC
[4] = system: XF 498 CNS
[5] = system: DMS 114 small cell lung
[6] = system: KM20L2 colon
[7] = system: LXFL 529 NSCLC
[8] = system: SNB-78 CNS
[9] = system: M19-MEL melanoma
[10] = system: DLD-1 colon
[11] = system: RXF-631 renal
[12] = system: P388 leukemia
[13] = system: P388/ADR leukemia
[14] = system: SN12K1 renal

SMILES | TGI [1] | other results
COC1=C(C)C(=O)c2c(c(COC(N)=O)c3n2CC(OC(C)=O)C3OC(C)=O)C1=O (stereo unspecified) | 0.387 µM | –
CSc1n[nH]c(N)c1C(=O)Nc1ccccc1 | > 100 µM | –
CN(C)CC1CCC(CN(C)C)C1=O (stereo unspecified) | 21.6 µM | TGI [2]: 36.7 µM; TGI [3]: 33.2 µM; TGI [4]: 10.3 µM; TGI [5]: 11.8 µM; TGI [6]: 38 µM; TGI [7]: 2.96 µM; TGI [8]: 17.2 µM; TGI [9]: 7.96 µM
C[n+]1c(-c2ccc(/C=C/C=N\NC(=O)c3ccc(C(=O)N/N=C\C=C\c4ccc(-c5cn6ccccc6[n+]5C)cc4)cc3)cc2)cn2ccccc21 | > 100 µM | –
COc1cc2c(cc1Cc1c(F)cccc1Cl)nc(-c1c(F)cccc1Cl)n2Cc1c(F)cccc1Cl | 47.5 µM | –
COc1ccc(CC2COc3cc(O)cc(O)c3C2=O)cc1O (stereo unspecified) | > 100 µM | –
COc1ccc(CN2C3CC2CN(c2ccc(-c4cc(OCC(C)(C)O)cn5ncc(C#N)c45)cn2)C3)cn1 | > 100 µM | GI50 [1]: > 100 µM
CCON1CC(C(=O)OC)=C(O)C1=O | > 100 µM | –
N#Cc1nc(NC(=O)c2ccccc2C(=O)O)c(C#N)[nH]1 | > 100 µM | –
CC(=O)OC1C(COC(=O)c2ccccc2)OC(Nc2ncc(-c3ccc(Br)cc3)s2)C(OC(=O)c2ccccc2)C1OC(=O)c1ccccc1 (stereo unspecified) | 35.3 µM | –
COc1ccc(C2c3cc4c(cc3OC(N3CCOCC3)C2C)OCO4)c(OC)c1OC (stereo unspecified) | 36.2 µM | –
COC(=O)c1cc(C#N)[nH]c1-c1cc(Br)cs1 | 35.2 µM | –
COc1cc(NC(C)=O)ccc1C(=O)NN1C(=O)/C(=C/c2ccco2)N=C1c1ccccc1 | > 50 µM | –
CC(=O)O[C@H]1CCc2c(cc(N)c3c2C(=O)C[C@]2(C)C([C@H](C)CCCC(C)C)CCC32C)C1(C)C (stereo partly specified) | > 100 µM | –
CC(NC(=O)N(C)C)NC(=O)N(C)C | > 10 µM | –
O=c1cc(N2CCCC2)[nH]c(=O)n1-c1ccccc1 | > 100 µM | –
Cc1ccc(/C=C2\Cc3c(C)cc(C)cc3C2=O)c(C(=O)O)c1 | 83.6 µM | –
CC(C(=O)O)C(C)(O)C(=O)O (stereo unspecified) | > 100 µM | –
OCc1ccc2c(c1)CC1(Cc3ccc(/C=N/O)cc3C1)C2 (stereo unspecified) | 42.3 µM | –
C\C(=N/N=C1/C(=C\N(C)C)C(=O)NC(=O)N1C)c1ccc(Cl)cc1 | > 100 µM | –
Cc1cnc2c(c1)C(=O)C1=C(C2=O)C2OC(=O)CC2OC1(C)C (stereo unspecified) | 2.76 µM | –
CNC(=O)CCCNC(=O)CCCC(=O)N(C)C | > 100 µM | –
O=C(N/N=C/c1ccc(Br)cc1)N/N=C/c1ccc(Br)cc1 | > 100 µM | –
CC12CCCC3(CC(=O)C(C)(C)C3C(=O)C1)C2 (stereo unspecified) | > 100 µM | –

SMILES | TGI [1] | other results
C#CCN(Cc1ccc2nc(OC)c(OC)nc2c1)c1cc(OC)c(OC)c(OC)c1 | > 87.8 µM | –
O=C1CSC2=NC3=C(COC/C3=C\c3ccc(Br)cc3)C(c3ccc(Br)cc3)N12 (stereo unspecified) | > 100 µM | –
COc1ccc(COCC[C@H](C)OC2OC(CO[Si](C)(C)C(C)(C)C)C(OC(=O)CCCN=[N+]=[N-])C(OC(=O)CCCN=[N+]=[N-])C2OC(=O)CCCN=[N+]=[N-])cc1 (stereo partly specified) | > 100 µM | –
COc1cc2ccc1OCc1cccc(n1)COc1ccc(cc1OC)C=Nc1ccc(cc1)N=C2 | > 100 µM | –
CN(C)CCC(=O)/C=C\c1ccccc1 | – | TGI [2]: 33.7 µM; TGI [10]: 31.8 µM; TGI [3]: 43.5 µM; TGI [4]: 28.4 µM; TGI [11]: 60.4 µM; TGI [5]: 33.7 µM; TGI [6]: 86.1 µM; TGI [7]: 26.9 µM; TGI [8]: 37.6 µM; TGI [9]: 37.4 µM
CC(=O)OCc1c(O)c2c(c(O)c1COC(C)=O)C(=O)C=CC2=O | 8.84 µM | TGI [2]: 34.3 µM; TGI [3]: 35.8 µM; TGI [5]: 25.4 µM; TGI [6]: 32.7 µM; TGI [7]: 10.4 µM; TGI [8]: 28 µM; TGI [9]: 3.54 µM
Cn1c2ccccc2c(=O)c2c(O)cc3c(c21)C=CC1(CCCCC1)O3 | > 10 µM | –
C[C@]12CC[C@@H]3c4cc(I)c(O)cc4CC[C@H]3[C@@H]1CC[C@@H]2O | 13.7 µM | –
COc1ccc(N(C(=O)Nc2ccc(Cl)c(Cl)c2)C2c3cccn3C(=O)N2c2ccc(Cl)c(Cl)c2)cc1 (stereo unspecified) | > 100 µM | –
CCOC(=O)c1nc2cc(C(F)(F)F)ccc2nc1Nc1ccc(C(=O)NC(C(=O)OCC)C(=O)OCC)cc1 | > 100 µM | –
C=Cc1ccccc1C1(O)C=CC(OC)(OC)C=C1 | 37.9 µM | –
O=C1NCN(c2ccccc2)C12CCN(CCCN1CCN(CCOC(c3ccc(F)cc3)c3ccc(F)cc3)CC1)CC2 | 3.71 µM | –
CCCSc1nc(-c2ccc(OC)cc2)c(C#N)c(=O)n1C1OC(COC(C)=O)C(OC(C)=O)C(OC(C)=O)C1OC(C)=O (stereo unspecified) | > 100 µM | TGI [5]: > 100 µM; TGI [6]: > 100 µM; TGI [7]: > 100 µM; TGI [8]: > 100 µM; TGI [9]: > 100 µM
COc1cc2c(c(O)c1OC)C(=O)C(Cc1ccc(O)cc1)CO2 (stereo unspecified) | > 100 µM | –
C1=C\SS/C=C\SS/1 | > 100 µM | –
c1c2c(cc(-n3nnc4c3CCCCCC4)c1-n1nnc3c1CCCCCC3)CCCCCC2 | 34.6 µM | TGI [2]: 12.3 µM; TGI [4]: 9.62 µM; TGI [11]: 34.8 µM; TGI [8]: 39.4 µM; TGI [9]: 25.5 µM
CCC(C(=O)C(=O)OC)P1(=O)OC(C)(C)CN1C(C)(C)C (stereo unspecified) | > 100 µM | –
O=c1[nH]c(Nc2cccc(CO)c2)nc2nc[nH]c12 | > 100 µM | –
C=C1c2nc3ccccc3n2C=C(c2ccc(Cl)cc2)N1c1ccc(OC)cc1 | 66.5 µM | –
COc1nc(C#CC(C)(C)C)nc(OC)n1 | > 100 µM | –
O=C1c2ccccc2NC(=S)[C@@H]2CCCN12 | > 100 µM | –
CC(=O)OC1CCC2C3CCc4c(C)ccc(OS(=O)(=O)c5ccccc5)c4C3CCC12C (stereo unspecified) | > 100 µM | –
CC(=O)c1cnc2oc3ccc(O)cc3c2c1-c1ccccc1 | > 100 µM | –
O=C(c1ccncc1)C1C(=O)c2ccccc2C1C1(O)c2ccccc2CC1C(O)c1ccncc1 (stereo unspecified) | 57.3 µM | –

SMILES | TGI [1] | other results
CC(=O)OC(Cn1cncn1)(Cn1cncn1)c1ccc(Cl)cc1Cl | > 100 µM | –
[O-]/[N+](=C\c1ccccc1OC(=S)S)c1ccc(Cl)cc1 | > 100 µM | –
Cc1c2c(OCC3CCCCO3)nn(C)c(=O)c2c(C)n1-c1ccccc1 (stereo unspecified) | 39.4 µM | –
COC(=O)C1(Cc2ccc3c(c2)CCC3)Cc2ccccc2C1 | 72 µM | –
CCCCCCCCCc1nn2c(Cc3ccccc3)nnc2s1 | 39.3 µM | –
CCOC(=O)C#Cc1ccccc1 | 5.86 µM | –
CC(=O)c1ccc2c(c1)CC1(C2)Cc2ccccc2C1=O (stereo unspecified) | > 100 µM | –
CC(C)OC(=O)OCSc1ccccc1N=Cc1cccc([N+](=O)[O-])c1 | > 10 µM | –
NS(=O)(=O)c1cccc(NC(=S)NC(=O)Nc2ccc(Cl)c(Cl)c2)c1 | 40.2 µM | –
CCOC(=O)c1cn2c(n1)sc1cc(Cl)cc(Cl)c12 | > 100 µM | –
C=C(CN(C)C)C(=O)c1ccccc1[N+](=O)[O-] | 33.2 µM and 35 µM | GI50 [1]: 17.4 µM; TGI [2]: 33.7 µM; TGI [10]: 29.5 µM; TGI [3]: 32.7 µM; TGI [4]: 31.2 µM; TGI [11]: 34.4 µM; TGI [5]: 39.1 µM; TGI [6]: > 54.2 µM; TGI [7]: 30.3 µM; TGI [8]: 71.4 µM; TGI [9]: 32 µM
CN(C)CCNC(=O)c1cccc2nc(-c3ccccc3)oc12 | > 100 µM | TGI [12]: 20.3 µM; TGI [13]: > 64.3 µM; TGI [10]: > 100 µM; TGI [3]: > 100 µM; TGI [4]: > 91.9 µM; TGI [5]: > 100 µM; TGI [6]: > 100 µM; TGI [14]: > 75.5 µM; TGI [8]: > 100 µM; TGI [9]: 99.5 µM
COCCOCCOC1=CC(=O)c2c(O)ccc(O)c2C1=O | 3.47 µM | –
S=c1cc(-c2ccc3c(c2)OCO3)s[nH]1 | > 100 µM | –
COC1CC(OC2CCC3(C)C(=CCC4C3C(OC(C)=O)C(OC(=O)CC(C)C)C3(C)C(C(C)=O)CCC43O)C2)OC(C)C1OC1CC(OC)C(OC2CC(OC)C(OC3OC(C)C(OC4OC(CO)C(O)C(O)C4O)C(OC)C3O)C(C)O2)C(C)O1 (stereo unspecified) | > 75 µM | –
CCOC(=O)/C=C(\C(=O)OCC)n1ccc(=O)n(Cc2cn(COCCOC(C)=O)nn2)c1=O | 47.7 µM | –
CCOC(=O)c1nnsc1NN | > 100 µM | –
COC(=O)[C@H](Cc1ccccc1)NC(=O)CCCCCCC(=O)NO | 23.8 µM | –
NC(=O)N/N=C1\CC2C3CC4C2C4C13 (stereo unspecified) | > 100 µM | –
COc1cc(/C=C/C=C2\CC/C(=C\C=C\c3ccc(O)c(OC)c3)C2=O)ccc1O | > 100 µM | –
COc1ccc(NC(=S)NC(=O)c2ccc3c(c2)Sc2ccccc2O3)c([N+](=O)[O-])c1 | 96.2 µM | –
O=[N+]([O-])c1ccc2c(c1)C1=NN(c3ccccc3)C(c3ccccc3Br)C1CCC2 (stereo unspecified) | > 50 µM | –
